{"source": "paper PMC12073189", "about": "“Synthesis and Evaluation of a Novel Zuranolone Analog with High GABAA Receptor PAM Activity and Excellent Pharmacokinetic Profiles” (Molecules, 2025)", "key": {"α1β2γ2 GABAA receptor": {"biological_target": "T1, α1β2γ2 GABAA receptor (Homo sapiens, UniProt P14867+P47870)", "T1 construct": "expressed in transfected cells", "T1 sequence (P14867 28-456)": "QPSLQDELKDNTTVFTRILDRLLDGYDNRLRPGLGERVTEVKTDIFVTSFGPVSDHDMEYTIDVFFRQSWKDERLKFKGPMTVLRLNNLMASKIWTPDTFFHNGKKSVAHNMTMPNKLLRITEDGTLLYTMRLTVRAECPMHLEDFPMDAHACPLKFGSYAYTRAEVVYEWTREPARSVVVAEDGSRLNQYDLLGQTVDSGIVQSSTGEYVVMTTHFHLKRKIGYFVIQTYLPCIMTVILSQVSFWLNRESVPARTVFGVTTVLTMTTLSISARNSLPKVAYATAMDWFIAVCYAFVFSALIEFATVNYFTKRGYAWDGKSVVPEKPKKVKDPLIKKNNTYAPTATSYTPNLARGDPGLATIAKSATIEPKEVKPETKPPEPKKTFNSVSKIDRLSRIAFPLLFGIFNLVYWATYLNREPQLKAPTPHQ", "T1 sequence (P47870 25-512 limits assumed)": "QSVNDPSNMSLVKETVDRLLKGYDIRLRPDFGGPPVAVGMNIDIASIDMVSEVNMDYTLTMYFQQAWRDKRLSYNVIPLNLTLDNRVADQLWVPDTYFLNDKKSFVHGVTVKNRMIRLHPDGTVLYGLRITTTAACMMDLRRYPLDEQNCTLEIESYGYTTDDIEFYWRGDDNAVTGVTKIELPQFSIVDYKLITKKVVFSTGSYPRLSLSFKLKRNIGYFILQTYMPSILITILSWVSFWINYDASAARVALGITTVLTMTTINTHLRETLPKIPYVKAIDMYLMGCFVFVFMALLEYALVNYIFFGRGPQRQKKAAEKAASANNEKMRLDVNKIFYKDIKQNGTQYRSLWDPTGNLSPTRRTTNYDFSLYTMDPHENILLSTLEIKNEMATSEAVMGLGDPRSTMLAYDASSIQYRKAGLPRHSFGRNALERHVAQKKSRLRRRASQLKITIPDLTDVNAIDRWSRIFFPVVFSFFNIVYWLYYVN", "T1 sequence (P18507 40-475 partner)": "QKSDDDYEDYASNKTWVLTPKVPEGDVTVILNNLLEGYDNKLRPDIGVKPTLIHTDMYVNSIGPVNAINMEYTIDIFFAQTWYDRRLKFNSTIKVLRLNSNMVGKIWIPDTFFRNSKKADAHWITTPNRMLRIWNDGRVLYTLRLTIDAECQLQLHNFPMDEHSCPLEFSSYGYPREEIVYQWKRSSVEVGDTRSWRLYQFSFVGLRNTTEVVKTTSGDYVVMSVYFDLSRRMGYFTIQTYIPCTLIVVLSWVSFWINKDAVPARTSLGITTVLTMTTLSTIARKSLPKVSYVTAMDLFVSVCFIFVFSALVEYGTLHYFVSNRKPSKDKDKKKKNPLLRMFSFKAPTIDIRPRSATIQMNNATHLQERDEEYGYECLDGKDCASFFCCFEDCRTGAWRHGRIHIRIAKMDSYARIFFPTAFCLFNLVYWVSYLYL", "experiment": "Whole-cell electrophysiology of GABA-evoked currents, LTK cells", "assay_type": "cell-based", "settings": "for Emax: current induced by 1 μmol/L GABA = 100%", "procedure": "The α1β2γ2 and α4β3δ GABAA receptor subtypes, representing synaptic and extrasynaptic subunit compositions in neurons, are widely utilized for screening new NAS drugs. In this study, a preliminary SAR study was conducted on a series of Zuranolone analogs using the LogP values predicted by ADMETlab3.0 software, recombinant human GABAA receptor cell lines, and in vitro liver microsome stability assays. The results are summarized in Table 1, Table 2, and Table 3, respectively.\nThe effects of Zuranolone and synthetic analogs on GABA-evoked currents were assessed in LTK cells stably expressing α1β2γ2 GABAA receptor subunits (n = 3) or CHO cells transiently expressing α4β3δ receptors (n = 3). Whole-cell mode recordings were conducted using the HEKA EPC-10 amplifier and analyzed with PatchMaster software (version 2x90, HEKA Elektronik, Lambrecht, Germany). High-throughput whole-cell recordings were performed using the Q-Patch method from Sophion. Test substances were dissolved in DMSO (dimethyl sulfoxide) to prepare 10 mmol/L stock solutions, then diluted with perfusion bath solution to concentrations ranging from 0.01 to 10 μmol/L. In this experiment, the effects of Zuranolone and its synthetic analogs on GABA-induced currents were examined in the presence of a submaximal agonist concentration at 1 μmol/L GABA (EC20). Cells were pre-incubated with increasing doses of test substances for 30 s, followed by 2 s of GABA stimulation, and currents were recorded. The maximum efficacy (Emax) of the GABAA receptor is expressed with the current induced by 1 μmol/L GABA taken as 100%, and the percentage after treatment with the test compound is calculated. The EC50 values are determined by fitting the three concentration–response curves recorded from three cells."}, "[1]": {"experiment": "Liver microsome metabolic stability (RLM)", "assay_type": "in vitro ADME, rat", "design": "microsomal CLint at 1 μmol/L: unit not given here", "settings": "for half-life at 1 μmol/L: read-out: RLM T1/2", "procedure": "(§1) We quantified S1–S15 and Zuranolone using a UPLC-MS/MS (Agilent 1290 Infinity II UHPLC (Agilent Technologies, Santa Clara, CA, USA) coupled with a QTRAP 5500 MS/MS (ESI source) (SCIEX, Redwood City, CA, USA for MS/MS). The method assessed the content level of S9 and Zuranolone in microsome metabolism and in rat brain tissue and plasma. An ACQUITY UPLC Peptide BEH C18 column (Waters; 50 × 2.1 mm, 1.7 μm; 60 °C; Waters Corporation, Milford, MA, USA) was used with a mobile phase of 0.02% propionic acid in water (A) and acetonitrile (B). The gradient elution of the mobile phase B is carried out as follows: it is 10% from 0 to 0.5 min, 90% from 0.8 to 2.5 min, and 10% from 2.8 to 3.5 min, with a flow rate of 0.40 mL/min. Quantitative analysis was performed on a QTRAP 5500 MS (SCIEX, Redwood City, CA, USA) in positive ionization mode with MRM (multiple reaction monitoring), using progesterone-d9 as the internal standard. MRM transitions and parameters were optimized for each analyte, with collision energies of 25 V (S1–S15), 23 V (Zuranolone), and 30 V (IS), and declustering potentials of 80 V (S1–S15), 90 V (Zuranolone), and 180 V (IS). Other conditions were as follows: curtain gas 10 psi, collision gas ‘medium’, ion spray voltage 5500 V, temperature 500 °C, and ionization source gases 1 and 2 at 50 psi.\nTo evaluate the metabolic stability of compounds S1–S15 and Zuranolone in RLM and HLM, we designed the following in vitro liver microsome metabolism assay protocol. In a 1.5 mL centrifuge tube, sequentially add 173 μL of PBS (0.1 M, pH 7.4), 5 μL of liver microsomes (20 mg/mL), and 2 μL of the test compound (100 μmol/L). After thorough mixing, pre-incubate at 37 °C for 10 min. Subsequently, add 20 μL of NADPH to initiate the metabolism, with a parallel control without NADPH, to validate the background signal. Samples were collected at 0, 5, 10, 20, 30, and 60 min post-reaction initiation. At each designated time point, we quenched the reaction with ice-cold acetonitrile (600 μL). After centrifuging the mixture, we analyzed the supernatant using UPLC-MS/MS. For data analysis, the compound concentration at 0 min was set as 100%, with concentrations at subsequent time points expressed as residual percentages relative to the initial value, and the in vitro half-life (T1/2) and intrinsic clearance (CLint) were calculated."}, "[2]": {"experiment": "Brain distribution in rats", "assay_type": "in vivo, rat", "settings": "i.g. 24.4 μmol/kg", "procedure": "as §1\nZuranolone was solubilized in 5% DMSO with solutol HS 15 in saline. S9 was solubilized in 10% DMSA with 30% SBECD (Zibo Qianhui Biological Technology Co., Ltd., Zibo, China) in saline. After fasting for 12 h, rats (n = 6 per group) were administered Zuranolone and S9 intragastrically (i.g.) at a dose of 24.4 μmol/kg, and intravenously (i.v.) at 6.1 μmol/kg. Blood samples (200 μL) were collected into 1.5 mL tubes containing heparin at 15 min, 30 min, 1, 2, 3, 4, 6, 8, 12, 24, 48, and 96 h after i.g. or at 5, 15, 30 min, and 1, 2, 3, 4, 6, 8, 12, 24, 48, 96 h after i.v. Plasma was separated by centrifugation for 5 min (8000 rpm, 4 °C) and stored at −80 °C immediately."}, "[3]": {"system": "PTZ-induced acute seizures", "experiment": "Pentylenetetrazole (PTZ)-induced seizure test", "assay_type": "in vivo, rat", "settings": "rats; for effect on seizure incidence: oral 6, 12, 24 μmol/kg, PTZ 50 mg/kg; for latency to tonic seizures: n = 6", "procedure": "PTZ can trigger dose-dependent tonic seizures through its antagonistic effects on GABAA receptor function. To evaluate target engagement at GABAA receptors, Zuranolone and S9 were tested in a PTZ-induced acute seizure model in rats, which is widely used to assess GABAergic activity. Based on their pharmacokinetic study results, S9 or Zuranolone was administered orally at the same doses (6, 12, and 24 μmol/kg) 1 h prior to PTZ challenge.\nWe randomly divided rats into 7 groups (n = 6): three same-dose groups for both Zuranolone and S9 (6, 12, 24 μmol/kg) and a vehicle control group (30% SBECD). PTZ can selectively antagonize the GABAA receptors at a dose below 60 mg/kg, while higher doses lead to non-competitive antagonism of GABAA receptors and activation of NMDA receptors. Thus, a dose of 50 mg/kg was applied in this experiment. After intragastric administration of the test drugs or vehicle for 1 h, the animals were injected intraperitoneally with PTZ saline solution at 50 mg/kg. The rats were then placed in observation chambers to monitor the latency of clonic seizures (seizures lasting ≥3 s with LORR) and tonic seizures (the rigid extension of limbs, forming an angle of more than 90° with the body plane) within 1 h."}}, "note": "“And” between values parts separate entries of the source, which are not always exact repeats. Equal values may be shown once. “Also recorded” adds a separate entry of the source. Read-outs that look alike come from different tables or passages of the source."}
{"molecule": "C[C@@]1(O)CC[C@H]2[C@H](CC[C@@H]3[C@@H]2CC[C@]2(C)[C@@H](C(=O)Cn4cnn(-c5ccnc(OCC(F)(F)F)c5)c4=O)CC[C@@H]32)C1", "note": "[S9]", "values": [{"measurement": "EC50", "setting": "α1β2γ2 GABAA receptor; LTK cells, 1 μmol/L GABA (EC20), n = 3, read-out: α1β2γ2 EC50", "result": "50 ± 10", "unit": "nM"}, {"measurement": "Emax", "setting": "α1β2γ2 GABAA receptor; LTK cells, n = 3", "result": "675 ± 163", "unit": "%"}, {"measurement": "enhanced GABAA receptor potency compared to S28", "setting": "α1β2γ2 GABAA receptor; S28 previously reported ref 25", "result": "over 1 fold"}, {"measurement": "efficacy as % of that of Zuranolone", "setting": "α1β2γ2 GABAA receptor; synaptic GABAA receptors", "result": 76, "unit": "%"}, {"measurement": "potency as % of that of Zuranolone", "setting": "α1β2γ2 GABAA receptor; synaptic GABAA receptors", "result": 250, "unit": "%"}, {"measurement": "efficacy as % of that of Zuranolone", "setting": "α1β2γ2 GABAA receptor; synaptic and extrasynaptic GABAA receptors, not separated", "result": "approximately 75%"}, {"measurement": "fold longer T1/2 than Zuranolone", "setting": "[1]; RLM", "result": 4, "unit": "fold"}, {"measurement": "fold lower CLint than Zuranolone", "setting": "[1]; RLM", "result": 6.5, "unit": "fold"}, {"measurement": "half-life at 1 μmol/L", "setting": "[1]; pH 7.4, rat liver microsomes", "result": 3.1, "unit": "h"}, {"measurement": "microsomal CLint at 1 μmol/L", "setting": "[1]; pH 7.4, rat liver microsomes, read-out: RLM intrinsic clearance (CLint)", "result": 8000}, {"measurement": "AUCBrain 0–t", "setting": "[2]", "result": "30,969 nmol/kg·h and 30,969 ± 8450 nmol/kg·h"}, {"measurement": "F AUCBrain 0–t S9/Zuranolone (relative brain bioavailability)", "setting": "[2]", "result": 324, "unit": "%"}, {"measurement": "Brain concentration", "setting": "[2]; 0.5 h", "result": "189 nmol/kg and 189 ± 30 nmol/kg"}, {"measurement": "Brain concentration", "setting": "[2]; 2 h", "result": "1895 ± 593", "unit": "nmol/kg"}, {"measurement": "Brain concentration", "setting": "[2]; 6 h", "result": "2132 nmol/kg and 2132 ± 683 nmol/kg"}, {"measurement": "Brain concentration", "setting": "[2]; 24 h", "result": "175 nmol/kg and 175 ± 35 nmol/kg"}, {"measurement": "effect on seizure incidence", "setting": "[3]", "result": "neither compound significantly affected seizure incidence"}]}
{"molecule": "C[C@@]1(O)CC[C@H]2[C@H](CC[C@@H]3[C@@H]2CC[C@]2(C)[C@@H](C(=O)Cn4cc(C#N)cn4)CC[C@@H]32)C1", "note": "[Zuranolone]", "values": [{"measurement": "EC50", "setting": "α1β2γ2 GABAA receptor", "result": "123 ± 20", "unit": "nM"}, {"measurement": "Emax", "setting": "α1β2γ2 GABAA receptor; LTK cells, n = 3", "result": "894 ± 40", "unit": "%"}, {"measurement": "half-life at 1 μmol/L", "setting": "[1]; pH 7.4, rat liver microsomes", "result": 0.8, "unit": "h"}, {"measurement": "AUCBrain 0–t", "setting": "[2]", "result": "9549 nmol·h/kg and 9549 ± 2529 nmol·h/kg"}, {"measurement": "Brain concentration", "setting": "[2]; 0.5 h", "result": "3103 nmol/kg and 3103 ± 795 nmol/kg"}, {"measurement": "Brain concentration", "setting": "[2]; 2 h", "result": "2220 ± 574", "unit": "nmol/kg"}, {"measurement": "Brain concentration", "setting": "[2]; 6 h", "result": "193 nmol/kg and 193 ± 56 nmol/kg"}, {"measurement": "Brain concentration", "setting": "[2]; 24 h", "result": "below the quantification limit (BQL); also recorded: BQL ^b"}, {"measurement": "latency to tonic seizures", "setting": "[3]; oral 12 μmol/kg 1 h before PTZ 50 mg/kg i.p.", "result": "1748.0 ± 555.0", "unit": "s"}, {"measurement": "latency to tonic seizures", "setting": "[3]; oral 24 μmol/kg 1 h before PTZ 50 mg/kg i.p.", "result": "2995.0 ± 430.6", "unit": "s"}, {"measurement": "effect on seizure incidence", "setting": "[3]", "result": "neither compound significantly affected seizure incidence"}]}
